# Test results taken from publication PMC3284447, “In vivo antinociception of potent mu opioid agonist tetrapeptide analogues and comparison with a compact opioid agonist - neurokinin 1 receptor antagonist chimera” (Molecular Brain, 2012).
# Entries after “also recorded” stand apart in the source; their conditions may differ. Like-named read-outs stand apart in the source and are kept apart here. Square brackets hold non-standard residues; d marks the D form. Dmt = Cc1cc(O)cc(C)c1C[C@H](N)C(=O)O; dNMeA = CN[C@H](C)C(=O)O; Sar = CNCC(=O)O
# Columns and labels:
# male C57Bl6 mice [1] = assay: hot water tail-flick test, tolerance after daily i.v. administration for 5 days; format: in vivo, mouse; settings: for tolerance development after repetitive administration: daily for 5 days, i.v. (morphine i.p.), measured on day 5; for %MPE: ± SEM of 7-10 animals
# Description: (§1) Nociceptive responses to thermally-induced pain were assessed by the hot water tail-flick test using male C57Bl6 mice. Animals (weighing 25-28 g) were maintained on a normal light-dark cycle and testing occurred during the light cycle. Mice were injected intravenously (i.v.) with the examined drug, dissolved in saline, at different doses. For the verification of drug-induced antinociceptive tolerance, the investigated compounds were administered (i.v.) once per day for 5 days (2 and 4 mg/kg for SBCHM01 and 4 mg/kg for both AN81 and BVD03) and the analgesic effect was measured on the first and the fifth day of the experiment. In each case (both acute and chronic treatment) the effect was measured over a minimum time period of 120 minutes. The antinociceptive effect was measured in triplicate at the following time points post-injection: 5, 15, 30, 60, 120 min (and 180 min for SBCHM01; due to the strong and long-lasting analgesic effect produced by AN81 (Figure 2C), there was no possibility to prolong the experiment, which - if prolonged - could in consequence cause major damage to the animal's tail, thus giving spurious nociceptive responses). Responses to thermal hot stimulus were assessed by the latency with which the mouse removed its tail from 55°C water. A cut-off time of 10 s was used in order to prevent tissue damage.
# (§2) In order to compare the antinociceptive effect induced by the examined drugs, morphine was used as a standard reference.
# (§3) Data are presented as means ± standard errors of the mean (SEM). All of the calculations and statistical analysis were performed using Prism 5.0 (Graph Pad Software, San Diego, CA, USA). The nociceptive scores were analyzed using a two-way Anova with Bonferroni's post hoc test. The p value (the value of probability) as well as inferential statistics - F test, which include information about the obtained magnitude or value of the test statistic and degrees of freedom, are represented.
# male CD1 mice = assay: radiant heat tail-flick test after s.c. administration; format: in vivo, mouse
# Description: as §2
# In order to determine the duration of drug activity, s.c. drug administration into male CD1 mice (27-33 g; Charles River Laboratories, Sulzfeld, Germany) was performed. In addition to a thermal nociceptive stimulus, the alternative light beam-based tail-flick assay was performed using an UB 37360 Ugo Basile analgesiometer (Ugo Basile s.r.l., Varese, Italy). The reaction time required by the mouse to remove its tail due to the radiant heat was measured and defined as the tail-flick latency. A cut-off time of 10 s was used in order to minimize tissue damage. Tail-flick latencies were measured before (baseline) and after drug s.c. administration (30 min, 1 h, 2 h, 3 h, 4 h, 5 h, 6 h and 7 h), the antinociceptive effect was scored as a percentage of the maximal possible effect (% MPE), according to formula presented above. Drugs were dissolved in sterile physiological saline (0.9%) and were administered s.c. in a volume of 10 μl per 1 g body weight. The animal procedures were approved by the Austrian Ethical Committee on Animal Care and Use in line with international laws and policies.
# as §3
# MOR [2] = target: MOR; set-up: method as in PMID 21413804; settings: [^3H]DAMGO, rat brain membrane; cited from earlier work
# DOR [3] = target: DOR; set-up: method as in PMID 21413804; settings: [^3H]DSLET, rat brain membrane; cited from earlier work
# DOR [4] = system: DOR; set-up: method as in PMID 21413804; settings: MVD tissue bioassay; means of 3-6 experiments ± SEM; cited from earlier work
# KOR = settings: cited from earlier work
# From the text: Table 1 In vitro functional activities and affinities of opioid- and opioid-NK1 ligands | column: KOR Ki (nM)^e, f
# male C57Bl6 mice [5] = assay: hot water tail-flick test, acute antinociception after i.v. administration; format: in vivo, mouse; settings: for analgesic effect compared with morphine: morphine 4 mg/kg i.p.
# Description: as §1, §2, §3
# MOR/DOR = settings: cited from earlier work
# From the text: (§4) The structure differs from BVD03 only in the amide nitrogen N-methyl group and side chain of the second residue in the peptide sequence (Figure 1). When an activity comparison is made between the two ...
# MOR [6] = system: MOR; set-up: method as in PMID 21413804; settings: GPI tissue bioassay; means of 3-6 experiments ± SEM; cited from earlier work
# [7] = cited from earlier work
# From the text: as §4
# MOR [8] = assay: MOR binding, displacement of [^3H]diprenorphine in HEK293 cells; settings: BVD03 in comparison to BVD02, Ki
# DOR [9] = settings: [^3H]diprenorphine, HEK293 cells stably expressing DOR; cited from earlier work
# From the text: (§5) Table 1 In vitro functional activities and affinities of opioid- and opioid-NK1 ligands | column: DOR Ki (nM)^e, f || The potent antinociceptive effects of the investigated structures after peripheral administration indicate that all four peptidic compounds are able to cross the BBB. […] The observed effects are in agreement with earlier in vitro binding data obtained for these peptides (BVD02 ...
# DOR [10] = assay: DOR binding, displacement of [^3H]diprenorphine in HEK293 cells; settings: BVD03 in comparison to BVD02, Ki
# MOR [11] = assay: forskolin-stimulated cAMP accumulation, MOR agonism; format: cell-based; settings: BVD03 in comparison to BVD02, EC50 cAMP
# MOR [12] = settings: [^3H]diprenorphine, HEK293 cells stably expressing MOR; cited from earlier work
# From the text: as §5, with “MOR” for “DOR”
# MOR [13] = settings: forskolin-stimulated cAMP accumulation, agonist; cited from earlier work
# From the text: as §5, with “MOR EC50 (nM)^c, d” for “DOR Ki (nM)^e, f”
# DOR [14] = settings: forskolin-stimulated cAMP accumulation, agonist; cited from earlier work
# From the text: as §5, with “EC50 (nM)^c, d” for “Ki (nM)^e, f”
# [15] = system: male, Sprague-Dawley rats; settings: TY005, rats; i.t. administration, paw withdrawal test; cited from earlier work
# From the text: Recently, Vanderah and coworkers reported the detailed in vivo evaluation of H-Tyr-D-Ala-Gly-Phe-Met-Pro-Leu-Trp-O-3',5'-Bn(CF3)2 (TY005) in several animal assays to define the role of this compound in thermal and tactile stimuli in uninjured, sham- and nerve-injured male, Sprague-Dawley rats. They observed that this compound was able to exert the desired dual activity in vivo. […] This is in contrast to the current study, where the hot water tail-flick assay served as a model for acute pain and in which the drug was injected intravenously. […] For a general clinical applicability, an important goal in pain research consists of the discovery and development of improved analgesic drugs which could be admi ...
# [16] = i.v., 1 mg/kg, 30 min, ± SEM of 6-10 mice, p > 0.05 vs morphine
# [17] = [^3H]diprenorphine, HEK293 cells stably expressing KOR
# [18] = i.v., 0.5 mg/kg, 60 min, ± SEM of 6-10 mice, p > 0.05 vs morphine
molecule,measurement,setting,value
"CN1CC[C@]23c4c5ccc(O)c4O[C@H]2[C@@H](O)C=C[C@H]3[C@H]1C5 [morphine, reference compound]",tolerance development after repetitive administration,male C57Bl6 mice [1],mice had developed opioid-induced tolerance
same,potency at 180 min,"male C57Bl6 mice [1]; day 1, SBCHM01 2 mg/kg i.v., morphine 4 mg/kg i.p.",decrease in potency is clearly visible
same,duration of analgesia,"male CD1 mice; morphine s.c., more elevated doses relative to AN81",activity drops rapidly over time; also recorded: lost almost all activity over a time period of 2 hours
H-Dmt-D-Arg-Aba-Gly-NH2 [AN81],Ki,MOR [2],0.00015 ± 2e-05 µM
same,Ki,DOR [3],0.0006 ± 7e-05 µM
same,EC50,DOR [4],0.00042 ± 2e-05 µM
same,Ki,"KOR; [^3H]U69,593, guinea pig brain membrane",0.118 ± 0.012 µM
same,tolerance compared to morphine,male C57Bl6 mice [1]; 5 days repetitive administration,markedly lower
same,tolerance development after repetitive administration,male C57Bl6 mice [1],leads to the development of tolerance; also recorded: partial preservation of analgesia observed after repetitive administration; also recorded: appeared to still induce the development of tolerance
same,%MPE,"male C57Bl6 mice [1]; day 5, i.v., 4 mg/kg daily, last time point (120 min), p < 0.001",15.83% ± 4.40
same,overall analgesic effect after systemic administration,male C57Bl6 mice [5]; compared among the peptides of the study,strongest analgesic effect
same,analgesic effect compared with morphine,"male C57Bl6 mice [5]; i.v., 0.1 mg/kg, 15 min and 120 min",significantly lower analgesic effect
same,%MPE,"male C57Bl6 mice [5]; i.v., 0.1 mg/kg, 2 h, ± SEM of 6-10 mice, p < 0.05 vs morphine",61.2 ± 6.45%
same,%MPE,male C57Bl6 mice [5]; [16],95 ± 2.89%
same,%MPE,"male C57Bl6 mice [5]; i.v., 4 mg/kg, 30 min, 6-10 mice, p > 0.05 vs morphine",100%
same,analgesic effect compared with morphine,"male C57Bl6 mice [5]; i.v., 4, 1 and 0.5 mg/kg, all time points, p > 0.05",no difference in the analgesic effect
same,in vitro agonist profile,MOR/DOR,superagonist profile; also recorded: full MOR/DOR agonist with subnanomolar affinity and tissue bioactivity
same,duration of antinociception,male CD1 mice; abstract: very low doses (0.1 mg/kg),up to 7 hours
same,%MPE,"male CD1 mice; s.c., 1 mg/kg, 7 h, ± SEM of 5-6 mice",38.4 ± 7.8%
same,time of peak antinociception,"male CD1 mice; s.c., 0.2, 0.5 and 1 mg/kg, 5-6 mice",1 h
same,duration of analgesia,"male CD1 mice; s.c., 1, 0.5 and 0.2 mg/kg",up to 7 hours
same,EC50,MOR [6],0.00032 ± 4e-05 µM
H-Dmt-D-Arg-Phe-Lys-NH2 [Dmt^1-DALDA],opioid analgesic potency,[7],potent opioid analgesic
H-Dmt-NMe-D-Ala-Aba-Gly-NH2 [BVD03],factor of superior MOR binding vs BVD02,MOR [8],4
same,Ki,KOR; [17],> 1000 µM
same,Ki,DOR [9],0.005 ± 0.003 µM
same,tolerance development after repetitive administration,male C57Bl6 mice [1],leads to the development of tolerance
same,%MPE,"male C57Bl6 mice [1]; day 1, i.v., 4 mg/kg, 1 h",68.78 ± 7.18%
same,difference from morphine on first day,"male C57Bl6 mice [1]; day 1, i.v., 4 mg/kg, 7-10 animals",significant differences (**p < 0.01) when compared to morphine
same,%MPE,"male C57Bl6 mice [1]; day 5, i.v., 4 mg/kg daily, 60 min",18.14 ± 6.84%
same,fold increase in DOR affinity vs BVD02,DOR [10],26 fold
same,factor of superior MOR potency vs BVD02,MOR [11],45
same,Ki,MOR [12],0.015 ± 0.002 µM
same,%MPE,"male C57Bl6 mice [5]; i.v., 0.25 mg/kg (similar at 4 and 0.5 mg/kg), 15 min",35-40%
same,%MPE,"male C57Bl6 mice [5]; i.v., 0.25 mg/kg, 2 h, maximum level, ± SEM of 6-10 mice",57.48 ± 17.57%
same,%MPE,male C57Bl6 mice [5]; [18],88.41 ± 7.15%
same,%MPE,"male C57Bl6 mice [5]; i.v., 0.5 mg/kg, 120 min, ± SEM of 6-10 mice, p > 0.05 vs morphine",84.29 ± 6.46%
same,%MPE,"male C57Bl6 mice [5]; i.v., 1 mg/kg, 60 min, ± SEM of 6-10 mice, p > 0.05 vs morphine",89.21 ± 5.22%
same,%MPE,"male C57Bl6 mice [5]; i.v., 1 mg/kg, 120 min, ± SEM of 6-10 mice, p > 0.05 vs morphine",86.69 ± 5.52%
same,%MPE,"male C57Bl6 mice [5]; i.v., 4 mg/kg, 60 min, ± SEM of 6-10 mice, p > 0.05 vs morphine",68.78 ± 7.18%
same,%MPE,"male C57Bl6 mice [5]; i.v., 4 mg/kg, 120 min, ± SEM, vs morphine: BVD03 p < 0.05, SBCHM01 p > 0.05",50.06 ± 6.84%
same,antinociception after 2 hours,"male C57Bl6 mice [5]; i.v., all doses except 0.25 mg/kg",drop in antinociception after 2 hours
same,EC50,MOR [13],0.00174 ± 0.00034 nM
same,EC50,DOR [14],0.016 ± 0.009 nM
"H-Tyr-D-Ala-Gly-Phe-Met-Pro-Leu-Trp-O-3',5'-Bn(CF3)2 [TY005, hybrid opioid-NK1 octapeptide ligand]",antihyperalgesic tolerance,[15],development of antihyperalgesic tolerance could be suppressed; also recorded: inhibition of antihyperalgesic tolerance; also recorded: able to attenuate tolerance development
"H-[Dmt][dNMeA]F[Sar]-NH2 [BVD02, opioid tetrapeptide, ""ring opened"" analogue]",Ki,KOR; [17],> 1000 µM
same,Ki,DOR [9],0.13 ± 0.005 µM
same,Ki,MOR [12],0.06 ± 0.003 µM
same,%MPE,male C57Bl6 mice [5]; [18],56.77 ± 13.57%
same,%MPE,male C57Bl6 mice [5]; [16],74.77 ± 13.63%
same,%MPE,"male C57Bl6 mice [5]; i.v., 5 mg/kg, 15 min post-injection, 6-10 mice, unchanged within the next hour",100%
same,%MPE,"male C57Bl6 mice [5]; i.v., 5 mg/kg, 2 h, ± SEM of 6-10 mice, p > 0.05",96 ± 4%
same,antinociceptive activity at 120 min compared to morphine,"male C57Bl6 mice [5]; i.v., 1 and 0.5 mg/kg, 120 min, p < 0.001 vs morphine",dramatic reduction of activity
same,EC50,MOR [13],0.079 ± 0.0065 nM
same,EC50,DOR [14],4400 ± 500 nM
